The text below walks through data of patent publication US6458781B1, “Substituted diarylalkyl amides as calcium channel antagonists” (priority 1998, dated 2002).

Broadly, the IC50 is the concentration needed to halve the response being measured. A low value points to greater potency in that assay.

Counter-ions that a name gives are not always drawn. Like-named read-outs stand apart in the source and are kept apart here.

Experiment [1] has as its system sound-induced tonic convulsions in DBA/2 mice. The experiment in a line: Audiogenic seizure model in DBA/2 mice. The note with it: Mus musculus, protected/tested, read-out: Number of Mice Protected From Tonic Convulsions (converted); for responders at 30 mg/kg: 30 mg/Kg IV; for responders at 3 mg/kg: 3 mg/Kg IV; for responders at 10 mg/kg: 10 mg/Kg IV. In kind it is in vivo. How it is done:
Audiogenic Seizure Model in DBA/2 Mice
A compound of the present invention was dissolved in water using 10% (weight/volume) Emulphor (GAF Corp., Wayne, N.J.) surfactant. Substances were administered by intravenous injection into the retro-orbital venous sinus of male mice (3-4 weeks old, Jackson Laboratories, Bar Harbour, Me.). All testing was preformed 15 minutes or 45 minutes after drug injection. Immediately before anticonvulsant testing, mice were placed upon a wire mesh, 4 inches square suspended from a steel rod. The square was slowly inverted through 180 degrees and mice observed for 30 seconds. Any mouse falling from the wire mesh was scored as ataxic.
Mice were placed into an enclosed acrylic plastic chamber (21 cm height, approximately 30 cm diameter) with a high-frequency speaker (4 cm diameter) in the center of the top lid. An audio signal generator (Protek model B-810) was used to produce a continuous sinusoidal tone that Was swept linearly in frequency between 8 kHz and 16 kHz once each 10 msec. The average sound pressure level (SPL) during stimulation was approximately 100 dB at the floor of the chamber. Mice were placed within the chamber and allowed to acclimatize for 1 minute. DBA/2 mice in the vehicle-treated group responded to the sound stimulus (applied until tonic extension occurred, or for a maximum of 60 sec) with a characteristic seizure sequence consisting of wild running followed by clonic seizures, and later by tonic extension, and finally by respiratory arrest and death in 80% or more of the mice. In vehicle-treated mice, the entire sequence of seizures to respiratory arrest lasts approximately 15-20 seconds.
The incidence of all the seizure phases in the drug-treated and vehicle-treated mice was recorded, and the occurrence of tonic seizures were used for calculating anticonvulsant ED50 values by probit analysis. Mice were used only once for testing at each time and dose point.

For experiment [2], the system named is K+ channels in SCG neurons. The experiment in a line: Potassium current in superior cervical ganglion neurons (whole-cell voltage clamp). The experiment is classed as cell-based, rat. Here is the method:
(§1) Electrophysiological techniques were used to measure the effects of experimental compounds on voltage-gated Ca^2+, […] , and K^+ channels. […] Sodium and potassium channel currents were measured from acutely dissociated SCG neurons.
(§2) Dissociation of the neurons from the ganglia was accomplished using a 30 to 45 minute treatment in 0.25% trypsin, similar to methods outlined in Higgins, et al. (see Higgins D. et al. “Tissue culture of mammalian autonomic neurons.” In Banker G. and Goslin K. (Eds), Culturing Nerve Cells, Cambridge, Mass., MIT Press [1991]).
(§3) Ca^2+, Na^+, and K^+ channel currents in SCG neurons were measured using conventional single electrode whole-cell voltage-clamp techniques, outlined in Hamill et al., (see Hamill O. P. et al. “Improved patch-clamp techniques for high resolution current recordings from cells and cell-free membrane patches.”Pflugers Arch., 1981;391:85-100). For Ca^2+ channel experiments, the external bathing solution contained tetraethylammonium chloride (100 mM), choline chloride (52 mM), NaCl (15 mM), HEPES (10 mM), glucose (5.6 mM), CaCl2 (2 mM), and MgCl2 (0.8 mM), pH 7.35 with KOH; with the internal pipette solution containing cesium methane sulfonate (140 mM), EGTA (10 mM), and HEPES (10 mM), supplemented with 5 mM Mg^2+-ATP on the day of the experiment, pH 7.4 with CsOH. For Na^+ and K^+ channel experiments, the external bathing solution contained NaCl (150 mM), KCl (5 mM), MgCl2 (1.1 mM), CaCl2 (2.6 mM), Na-HEPES (10 mM), and glucose (10 mM), pH 7.4; with the internal pipette solution containing KCl (80 mM), K-gluconate (50 mM), HEPES (10 mM), and EGTA (10 mM), pH 7.4 with KOH. Experimental compounds were diluted into the external solution and applied to the soma of cells by local perfusion from large diameter (20-50 μm) glass micropipettes or from a U-tube applicator.
(§4) For Na^+ and K^+ channel currents, following the determination of the I/V relationship for each cell in control solution, currents were evoked from a holding potential between −65 and −55 mV by stepping every 10 sec to a test potential of either 0 mV for Na^+ or +50 mV for K^+ current for a duration of 35 msec. Peak inward current was measured for Na^+ and sustained current for K^+ channel currents. […] Test compounds were applied until steady-state block was achieved. Data were expressed as percent inhibition of control amplitudes for Na^+ and K^+ channel currents.

The subject of experiment [3] is Na+ channels in SCG neurons. The experiment is described as follows: Sodium current in superior cervical ganglion neurons (whole-cell voltage clamp). The experiment is classed as cell-based, rat. Here is the method: as §1, §2, §3, §4

With `CC(C)C[C@H](N)C(=O)NCCCC(c1ccc(F)cc1)c1ccc(F)cc1` [Example 7, (S)-2-Amino-4-methyl-pentanoic acid [4,4-bis-(4-fluoro-phenyl)-butyl]-amide monohydrochloride], the responders at 30 mg/kg was 80% in experiment [1] (0.25 h, 15 min posttreatment) and 80% in experiment [1] (0.75 h, 45 min posttreatment). Besides, the “SCG K, % blockage at 10 μM” value in experiment [2] is reported as 90% @ 10.

Regarding `CC(C)C[C@H](NCC1CCCCC1)C(=O)NCCCC(c1ccc(F)cc1)c1ccc(F)cc1` [Example 8, (S)-2-(Cyclohexylmethyl-amino)-4-methyl-pentanoic acid [4,4-bis-(4-fluoro-phenyl)-butyl]-amide monohydrochloride], in experiment [1] (0.25 h, 15 min posttreatment), the responders at 3 mg/kg was 0%, the responders at 10 mg/kg is 80% and the responders at 30 mg/kg was 100%. Moreover, in experiment [1] (0.75 h, 45 min posttreatment), the responders at 3 mg/kg is 0%, the responders at 10 mg/kg is 40% and the responders at 30 mg/kg is 100%. The “SCG K, % blockage at 10 μM” value in experiment [2] is 50% @ 10. Also, in experiment [3], the “SCG Na, % blockage at 10 μM” value worked out at 94% @ 10.

Consider `CC(C)=CCN[C@@H](CC(C)C)C(=O)NCCCC(c1ccc(F)cc1)c1ccc(F)cc1` [Example 9, (S)-4-Methyl-2-(3-methyl-but-2-enylamino)-pentanoic acid [4,4-bis-(4-fluoro-phenyl)-butyl]-amide monohydrochloride], for which, in experiment [1] (0.25 h, 15 min posttreatment), the responders at 3 mg/kg is 60%, the responders at 10 mg/kg is 100% and the responders at 30 mg/kg is 100%. In experiment [1] (0.75 h, 45 min posttreatment), the responders at 3 mg/kg was 0%, the responders at 10 mg/kg was 60% and the responders at 30 mg/kg is 100%. The same compound registered an IC50 in experiment [2] of 9.1 µM. Also, in experiment [3], the IC50 is 8.5 µM.

`CN[C@@H](CC(C)C)C(=O)NCCCC(c1ccc(F)cc1)c1ccc(F)cc1` [Example 12, (S)-4-Methyl-2-methylamino-pentanoic acid [4,4-bis-(4-fluoro-phenyl)-butyl]-amide monohydrochloride]: the responders at 30 mg/kg in experiment [1] (0.25 h, 15 min posttreatment) is 100%. Also, the responders at 30 mg/kg in experiment [1] (0.75 h, 45 min posttreatment) was 80%. In experiment [2], the “SCG K, % blockage at 1 μM” value stood at 15% @ 1 and the “SCG K, % blockage at 10 μM” value is recorded as 58% @ 10. The “SCG Na, % blockage at 10 μM” value in experiment [3] is on record as 87% @ 10.

Turning to `CC(C)C[C@@H](C(=O)NCCCC(c1ccc(F)cc1)c1ccc(F)cc1)N(C)Cc1ccc(C(C)(C)C)cc1.Cl` [Example 14, (S)-2-[(4-tert-Butyl-benzyl)-methyl-amino]-4-methyl-pentanoic acid [4,4-bis-(4-fluoro-phenyl)-butyl]-amide monohydrochloride], in experiment [2], the “SCG K, % blockage at 10 μM” value is reported as −1% @ 10.

Turning to `CC(C)CCN(C)[C@@H](CC(C)C)C(=O)NCCCC(c1ccc(F)cc1)c1ccc(F)cc1` [Example 28, (S)-4-Methyl-2-[methyl-(3-methyl-butyl)-amino]-pentanoic acid [4,4-bis-(4-fluoro-phenyl)-butyl]-amide monohydrochloride], the responders at 30 mg/kg in experiment [1] (0.25 h, 15 min posttreatment) is 80%. Moreover, the responders at 30 mg/kg in experiment [1] (0.75 h, 45 min posttreatment) is 100%. Moreover, in experiment [2], the “SCG K, % blockage at 1 μM” value was 3% @ 1 and the “SCG K, % blockage at 10 μM” value came out at 47% @ 10. Moreover, the “SCG Na, % blockage at 1 μM” value in experiment [3] (at 1 μM) stood at 5% @ 1. Further, the “SCG Na, % blockage at 10 μM” value in experiment [3] is recorded as 90% @ 10.

Take `CC(C)C[C@H](NC(=O)N1CCCCCC1)C(=O)N1CCN(C(c2ccc(F)cc2)c2ccc(F)cc2)CC1` [Example 31, (S)-Azepane-1-carboxylic acid (1-{4-[bis-(4-fluoro-phenyl)-methyl]-piperazine-1-carbonyl}-3-methyl-butyl)-amide]: the responders at 30 mg/kg in experiment [1] (0.25 h, 15 min posttreatment) is 0%; in experiment [1] (0.75 h, 45 min posttreatment) it was 0%.

Turning to `CC(C)[C@H](NC(=O)N1CCCCCC1)C(=O)N1CCN(C(c2ccc(F)cc2)c2ccc(F)cc2)CC1` [Example 33, (S)-Azepane-1-carboxylic acid (1-{4-[bis-(4-fluoro-phenyl)-methyl]-piperazine-1-carbonyl}-2-methyl-propyl)-amide], the responders at 30 mg/kg is 0% in experiment [1] (0.25 h, 15 min posttreatment) and 0% in experiment [1] (0.75 h, 45 min posttreatment). The “SCG K, % blockage at 10 μM” value in experiment [2] is recorded as 39% @ 10. Besides, in experiment [3], the “SCG Na, % blockage at 10 μM” value stood at 22% @ 10.

On to `CC(C)C[C@@H](CN1CCN(C(c2ccc(F)cc2)c2ccc(F)cc2)CC1)NC(=O)N1CCCCCC1` [Example 36, (S)-Azepane-1-carboxylic acid (1-{4-[bis-(4-fluoro-phenyl)-methyl]-piperazin-1-ylmethyl}-3-methyl-butyl)-amide], for which, in experiment [2], the “SCG K, % blockage at 10 μM” value turned out to be 27% @ 10. For the same compound, the “SCG Na, % blockage at 10 μM” value in experiment [3] was determined as 81% @ 10.

`CC(C)C[C@@H](C(=O)N1CCN(C(c2ccc(F)cc2)c2ccc(F)cc2)CC1)N(C)C` [Example 39, (S)-1-{4-[Bis-(4-fluoro-phenyl)-methyl]-piperazin-1-yl}-2-dimethylamino-4-methyl-pentan-1-one dihydrochloride]: in experiment [2], the “SCG K, % blockage at 1 μM” value is on record as 6% @ 1.
